Read-outs that look alike come from different tables or passages of the source.
Molecular target: T1, GLP-1R (Homo sapiens, UniProt P43220)
T1 construct: host or cells: GLP-1R CRE-bla CHO-K1 cells
Assay: EC20 GLP-1(9-36) PAM cAMP assay: dose response of compound in the presence of fixed concentration of GLP-1(9-36)
Format: cell-based
Settings: GLP-1R CRE-bla CHO-K1 cells, read-out: EC20 GLP-1(9-36) PAM EC50
Description: EC20 GLP-1(9-36) PAM cAMP Assay: Dose Response of Compound in the Presence of Fixed Concentration of GLP-1 (9-36).
GLP-1R CRE-bla CHO-K1 cells cultured in growth medium (DMEM-High glucose, 10% dialyzed FBS, 0.1 mM NEAA, 25 mM Hepes, 100 U/mL penicillin/100 μg/mL streptomycin, 5 μg/mL Blasticidin, 600 μg/mL Hygromycin) were trypsinized and plated in suspension into 384 well white flat bottom plates at 5000 cells/well in 12 μL assay buffer (Hanks Balanced Salt solution, 10 mM hepes, 0.1% BSA, pH 7.4). A 5× compound dose response curve (12-point) was generated in assay buffer containing 1.5 mM IBMX, 4% DMSO. GLP-1(9-36) was diluted to 4.2 μM in assay buffer containing 1.5 mM IMBX and 4% DMSO. The 5× compound dose response was added (3 μL), followed by 0.5 μL of GLP-1(9-36) and cells were incubated for 30 min at 37° C. Direct detection of cAMP was carried out using DiscoveRx HitHunter cAMP kit according to manufacturer's instructions and luminescence was read using a SpectraMax M5 plate reader. Luminescence was converted to total cAMP using a cAMP standard curve and data was analyzed by non-linear regression to determine the EC50 and Emax.
GLP-1(7-36): […]-NH2 (SEQ ID NO: 2). GLP-1(9-36): […]-NH2 (SEQ ID NO: 3). GLP-1(7-36) was purchased from GenScript. GLP-1(9-36) was purchased from Biopeptide Co., Inc.
The EC20GLP-1(9-36) PAM Activity range is denoted as follows: + denotes activity <0.8 μM, ++ denotes activity between 0.8 and 2.5 μM, +++ denotes activity between 2.5 and 5 μM, and ++++ denotes activity 5 to 10 μM.

[1] = dose response of compound in presence of fixed concentration of GLP-1(9-36)
[2] = compound dose response with fixed concentration of GLP-1(9-36)

T1 sequence (P43220 24-463): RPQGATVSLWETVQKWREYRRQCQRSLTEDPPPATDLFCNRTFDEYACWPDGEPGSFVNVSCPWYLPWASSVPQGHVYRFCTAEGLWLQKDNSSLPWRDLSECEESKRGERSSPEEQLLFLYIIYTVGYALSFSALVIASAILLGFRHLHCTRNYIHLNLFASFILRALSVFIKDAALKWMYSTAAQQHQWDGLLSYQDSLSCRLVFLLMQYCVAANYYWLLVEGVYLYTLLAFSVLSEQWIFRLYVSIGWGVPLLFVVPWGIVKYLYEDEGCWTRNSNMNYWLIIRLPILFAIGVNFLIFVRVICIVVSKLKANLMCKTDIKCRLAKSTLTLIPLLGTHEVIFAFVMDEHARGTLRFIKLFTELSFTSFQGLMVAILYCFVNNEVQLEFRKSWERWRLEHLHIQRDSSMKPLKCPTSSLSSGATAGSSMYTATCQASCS
T1 sequence (P01275 100-127 partner limits assumed): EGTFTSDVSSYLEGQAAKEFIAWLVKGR

SMILES | EC50 [1] | EC50 [2]
CCCCCCCOc1ccc(-c2cnc(-c3ccc(C[C@H](NC(=O)c4ccc(C(C)(C)C)s4)C(=O)NC(C)(C)C(=O)O)cc3)nc2)cc1 [Compound 406] | 800 to 2500 nM | 
C[C@@H](NC(=O)[C@H](Cc1ccc(-c2ncc(-c3ccc(-c4ccc(Cl)cc4)cc3)cn2)cc1)NC(=O)c1ccc(C(C)(C)C)s1)C(=O)O [Compound 1315] |  | < 800 nM
CCCCCCCc1ccc(-c2cnc(-c3ccc(C[C@H](NC(=O)c4ccc(C(C)(C)C)cc4)C(=O)NCCC(=O)O)cc3)nc2)cc1 [Compound 679] | 800 to 2500 nM | 
CCCCCCCc1ccc(-c2cnc(-c3ccc(C[C@H](NC(=O)c4ccc(C(C)(C)C)s4)C(=O)N[C@H](C)C(=O)O)cc3)nc2)cc1 [Compound 737] | < 800 nM | 
CCCCCCCOc1ccc2nc(-c3ccc(C[C@H](NC(=O)c4ccc(C(C)(C)C)cc4)C(=O)O)cc3)ccc2c1 [Compound 671, (S)-2-(4-(tert-butyl)benzamido)-3-(4-(6-(heptyloxy)quinolin-2-yl)phenyl)propanoic acid] | 2500 to 5000 nM | 
CCCCCCCOc1ccc(-c2cnc(-c3ccc(C[C@H](NC(=O)c4ccc(C(C)(C)C)s4)C(=O)NC(C)CO)cc3)nc2)cc1 (stereo partly drawn) [Compound 387] | 5000 to 10000 nM | 
CCCCCCCOc1ccc(-c2cnc(-c3ccc(C[C@H](NC(=O)c4ccc(C(C)(C)C)cc4)C(=O)N[C@@H](CC(=O)NCCN(C)C)C(=O)O)cc3)nc2)cc1 [Compound 485] | 5000 to 10000 nM | 
CCCCCCCOc1ccc(-c2cnc(-c3ccc(C[C@H](NC(=O)c4ccc(C(C)(C)C)cc4OC)C(=O)N4CC[C@H](C(=O)O)C4)cc3)nc2)cc1 [Compound 852] | 2500 to 5000 nM | 
CCCCCCCOc1ccc(-c2cnc(-c3ccc(C[C@H](NC(=O)c4ccc(C(C)(C)C)s4)C(=O)N4CCC(C(=O)O)CC4)cc3)nc2)cc1 [Compound 448] | < 800 nM | 
CCCc1ccc(-c2ccc(-c3cnc(-c4ccc(C[C@H](NC(=O)c5ccc(CC(C)C)cc5)C(=O)N5CC(C(=O)O)C5)cc4)nc3)c(F)c2)cc1 [Compound 1407] |  | < 800 nM
CC(C)[C@H]1CC[C@H](c2ccc(-c3cnc(-c4ccc(C[C@H](NC(=O)c5ccc(C(C)(C)C)s5)C(=O)N5CC(C(=O)O)C5)cc4)nc3)cc2)CC1 [Compound 1178] | < 800 nM | 
CC(C)CCc1noc(-c2cnc(-c3ccc(C[C@H](NC(=O)c4ccc(C(C)(C)C)cc4)C(=O)NCCC(=O)O)cc3)nc2)n1 [Compound 749] | 800 to 2500 nM | 
CCCCCCCOc1ccc(-c2cnc(-c3ccc(C[C@H](NC(=O)c4ccc(C(C)(C)C)cc4)C(=O)N[C@@H](CC(=O)NCC(N)=O)C(=O)O)cc3)nc2)cc1 [Compound 482] | < 800 nM | 
CCCCCCCOc1ccc(-c2cnc(-c3ccc(C[C@H](NC(=O)c4ccc(C(C)(C)C)s4)C(=O)N[C@H](CN)C(=O)O)cc3)nc2)cc1 [Compound 392] | 2500 to 5000 nM | 
COCCCCCOc1ccc(-c2cnc(-c3ccc(C[C@H](NC(=O)c4ccc(C(C)(C)C)cc4)C(=O)NCCC(=O)O)cc3)nc2)cc1 [Compound 471] | 5000 to 10000 nM | 
CCCCCCCOc1ccc(-c2cnc(-c3ccc(C[C@H](NC(=O)[C@H]4CC[C@H](C(C)(C)C)CC4)C(=O)N[C@H](C)C(=O)O)cc3)nc2)cc1 [Compound 833] | 5000 to 10000 nM | 
CC(C)(C)c1ccc(C(=O)NC(Cc2ccc(-c3ncc(N4CCC(c5ccc(Br)cc5)CC4)cn3)cc2)C(=O)N2CC(C(=O)O)C2)s1 (stereo not drawn) [Compound 1487] |  | 800 to 2500 nM
CCCOc1ccc(-c2cnc(-c3ccc(C[C@H](NC(=O)c4ccc(C(C)(C)C)cc4)C(=O)NCCC(=O)O)cc3)nc2)cc1 [Compound 708] | 800 to 2500 nM | 
CCCCCCCOc1ccc(-c2cnc(-c3ccc(C[C@H](NC(=O)c4ccc(C(C)(C)C)s4)C(=O)N[C@@H](C(=O)O)[C@@H](C)O)cc3)nc2)cc1 [Compound 659] | < 800 nM | 
CC(C)(C)c1ccc(C(=O)N[C@@H](Cc2ccc(-c3ncc(-c4nc(-c5ccc(Cl)c(Cl)c5)no4)cn3)cc2)C(=O)NCCC(=O)O)cc1 [Compound 752] | 5000 to 10000 nM | 
CCC[C@H]1CC[C@H](C2CCN(c3cnc(-c4ccc(C[C@H](NC(=O)c5ccc(C6CC6)cn5)C(=O)N5CC(C(=O)O)C5)cc4)nc3)CC2)CC1 [Compound 1538] |  | 800 to 2500 nM
Cc1ccc(C2CCN(c3cnc(-c4ccc(C[C@H](NC(=O)c5ccc(C(C)(C)C)s5)C(=O)N5CC(C(=O)O)C5)cc4)nc3)CC2)cc1 [Compound 1430] |  | < 800 nM
CCCCCCCOc1ccc(-c2cnc(-c3ccc(C[C@H](NC(=O)c4ccc(O)c(F)c4)C(=O)N4CC[C@H](C(=O)O)C4)cc3)nc2)cc1 [Compound 1096] | 800 to 2500 nM | 

SMILES | EC50 [1] | EC50 [2]
COc1cc(-c2cnc(-c3ccc(C[C@H](NC(=O)c4ccc(C(C)(C)C)s4)C(=O)N[C@H](C)C(=O)O)cc3)nc2)ccc1OCc1ccccc1 [Compound 999] | 2500 to 5000 nM | 
CCCCCCCOc1ccc(-c2cnc(-c3ccc(C[C@H](NC(=O)c4ccc(C(C)C)cc4)C(=O)N4CC(C(=O)O)C4)cc3)nc2)cc1 [Compound 1113] | 800 to 2500 nM | 
CCc1ccc(-c2ccc(-c3cnc(-c4ccc(C[C@H](NC(=O)c5ccc(C(C)(C)C)s5)C(=O)N[C@H](C)C(=O)O)cc4)nc3)cc2)cc1 [Compound 1286] |  | < 800 nM
CCCCCCCOc1ccc(-c2cnc(-c3ccc(C[C@H](NC(=O)c4ccn(C(C)(C)C)c4)C(=O)N4CC[C@H](C(=O)O)C4)cc3)nc2)cc1 [Compound 1094] | < 800 nM | 
CCCCCCCOc1ccc(-c2cnc(-c3ccc(C[C@H](NC(=O)c4ccc(C(C)(C)C)s4)C(=O)NS(=O)(=O)c4ccccc4)cc3)nc2)cc1 [Compound 423] | 800 to 2500 nM | 
CCc1ccc(/C=C\c2cnc(-c3ccc(C[C@H](NC(=O)c4ccc(C(C)(C)C)s4)C(=O)N[C@H](C)C(=O)O)cc3)nc2)cc1 [Compound 1277] |  | 800 to 2500 nM
CCCCCCCOc1ccc(-c2cnc(-c3ccc(C[C@H](NC(=O)c4ccc(C(C)(C)C)s4)C(=O)N4CCC(C)(C(=O)O)C4)cc3)nc2)cc1 (stereo partly drawn) [Compound 637] | 800 to 2500 nM | 
CC(C)(C)c1ccc(-c2cnc(-c3ccc(C[C@H](NC(=O)c4ccc(C(C)(C)C)s4)C(=O)NC(C(=O)O)C(O)c4ccccc4)cc3)nc2)cc1 (stereo partly drawn) [Compound 932] | 2500 to 5000 nM | 
CCCCCCCOc1ccc(-c2cnc(-c3ccc(C[C@H](NC(=O)c4ccc(CC)s4)C(=O)NC(C(=O)O)C(O)c4ccccc4)cc3)nc2)cc1 (stereo partly drawn) [Compound 957] | 800 to 2500 nM | 
CCCCCCCOc1ccc(-c2cnc(-c3ccc(C[C@H](NC(=O)c4ccc(CCCC)cc4)C(=O)N[C@H](C)C(=O)O)cc3)nc2)cc1 [Compound 819] | 2500 to 5000 nM | 
CCCCc1noc(-c2cnc(-c3ccc(C[C@H](NC(=O)c4ccc(C(C)(C)C)cc4)C(=O)NCCC(=O)O)cc3)nc2)n1 [Compound 743] | 5000 to 10000 nM | 
CCCCCCCOc1ccc(-c2cnc(-c3ccc(C[C@H](NC(=O)c4ccc(C(C)(C)C)s4)C(=O)NC(C(=O)O)C4CCOCC4)cc3)nc2)cc1 (stereo partly drawn) [Compound 396] | < 800 nM | 
CCCCCCCOc1ccc(-c2cnc(-c3ccc(C[C@H](NC(=O)c4ccc(C(C)(C)C)s4)C(=O)N[C@@H](CC(=O)O)C(=O)N(C)CCN(C)C)cc3)nc2)cc1 [Compound 531] | 800 to 2500 nM | 
CCC[C@H]1CC[C@H](C2CCN(c3cnc(-c4ccc(CC(NC(=O)c5ccc(C(C)(C)C)s5)C(=O)NS(=O)(=O)CCC5CCC5)cc4)nc3)CC2)CC1 (stereo partly drawn) [Compound 1541] |  | 800 to 2500 nM
Cc1ccc(S(=O)(=O)N2CC=C(c3cnc(-c4ccc(C[C@H](NC(=O)c5ccc(C(C)(C)C)s5)C(=O)N[C@H](C)C(=O)O)cc4)nc3)CC2)cc1 [Compound 1338] |  | 2500 to 5000 nM
CCCCCCCOc1ccc(-c2cnc(-c3ccc(C[C@H](NC(=O)c4ccc(C(C)(C)C)cc4)C(=O)NCCC(=O)O)cc3)nc2)cc1C [Compound 698] | < 800 nM | 
CC(C)(C)c1ccc(C(=O)N[C@@H](Cc2ccc(-c3ncc(-c4ccc(-c5cccc(C(F)(F)F)c5)cc4)cn3)cc2)C(=O)O)s1 [Compound 1347] |  | < 800 nM
Cc1ccc(-c2ccc(-c3cnc(-c4ccc(C[C@H](NC(=O)c5ccc(C(C)(C)C)s5)C(=O)N[C@H](C)C(=O)O)cc4)nc3)s2)cc1 [Compound 1302] |  | 5000 to 10000 nM
CC[C@H]1CC[C@H](c2ccc(-c3cnc(-c4ccc(C[C@@H](NC(=O)c5ccc(C(C)(C)C)s5)C(=O)N[C@@H](C)C(=O)O)cc4)nc3)cc2)CC1 [Compound 1270] |  | 800 to 2500 nM
COc1ccc(-c2ccc(-c3cnc(-c4ccc(C[C@H](NC(=O)c5ccc(C(C)(C)C)s5)C(=O)N[C@H](C)C(=O)O)cc4)nc3)cc2)cc1 [Compound 1002] | 800 to 2500 nM | 
CC[C@H]1CC[C@H](c2ccc(-c3cnc(-c4ccc(C[C@H](NC(=O)c5ccc(C(C)(C)C)nc5)C(=O)N5CC(C(=O)O)C5)cc4)nc3)cc2)CC1 [Compound 1163] | < 800 nM | 
CCCCCCCOc1ccc2nc(-c3ccc(C[C@H](NC(=O)c4ccc(C(C)(C)C)cc4)C(=O)O)cc3)ncc2c1 [Compound 673, (S)-2-(4-(tert-butyl)benzamido)-3-(4-(6-(heptyloxy)quinazolin-2-yl)phenyl)propanoic acid] | 5000 to 10000 nM | 
